How the values were obtained:
[1] = test system: HEK-mFAP tumor-bearing mice; experiment: 68Ga dynamic PET/CT imaging; format: in vivo, mouse; settings: dynamic PET over 60 min, IV bolus
Description: Part 1. Dynamic PET Imaging. The aim of the study is to perform ^68Ga-6555 PET/CT dynamic imaging in HEK-mFAP tumor-bearing mice to assess tumor uptake and retention over time, as well as non-specific uptake. HEK-mFAP tumor-bearing mice were used for the study (N=3). ^68Ga-6555 (prepared as per Example 20) PET imaging was carried out on a dedicated small animal PET/CT scanner (Siemens Multimodality Inveon, Siemens Medical Solutions USA, Inc.). The mice were anesthetized using 3% isoflurane/medical air inhalation prior to the radiotracer injection and throughout the scan duration. Warming was used to maintain healthy core body temperature of the mice during periods of unconsciousness. Following a bolus intravenous injection (via the lateral tail vein) of ^68Ga-6555 (average of 8 MBq, 7.7-8.1 MBq range), a dynamic emission scan was acquired in list mode format over 60 min. […] The reconstructed PET/CT images were analyzed with the Siemens Inveon Research Workplace software. The radioactivity retention within the selected tissue was obtained from mean voxel intensity values within the VOI and then converted to megabecquerels per milliliter using the calibration factor determined for the Inveon PET System. […] We used the maximum SUV value (SUVmax) within a VOI as a quantitative imaging metric which is independent of tissue intrinsic variations. […]

[2] = Radiochemical purity by HPLC on storage at room temperature; format: physicochemical; settings: 4 hours at room temperature
Description: The labeling efficiency was analyzed by instant thin layer chromatography (iTLC) and was typically >98%. For iTLC analysis, 1 μL of diluted labeling solution was applied to a strip of iTLC-SA chromatography paper (Agilent P/N A120B12, 114×2.5 mm) and developed in 0.1M citrate buffer (8 cm solvent migration) to assess free ^177Lu (Rf >0.5) and [^177Lu]-6555 (Rf ˜0). The iTLC strips were analyzed using an Eckert & Ziegler AR-2000 Radio-TLC Imaging Scanner. The radiochemical purity was analyzed by high performance chromatography (HPLC) and was typically >90%. Briefly, the product was analyzed using a Phenomenex Luna 3.0 μm C18(2), 100A, 150 mm×4.6 mm column. Eluent A: 50 mM ammonium acetate in water, eluent B: acetonitrile. Gradient: 2% B from 0-5 min; 2% to 26% B from 5-20 min; 26% to 98% B from 20-25 min; 98% to 2% B from 25-26 min; 2% B from 26-30 min. Flow rate: 1.0 mL/min, Radio-HPLC detector: NaI (Eckert & Zeigler FC-1000), UV: 215 nm. The radiochemical purity remained >90% for three days at room temperature.
The above depicted radiopharmaceutical [^177Lu]-6952 can be prepared as described in Example 19 using the radiochemical precursor 6952 (Example 14 above). The labeling efficiency was analyzed by instant thin layer chromatography (iTLC) and was typically >98%. […] The iTLC strips were analyzed using an Eckert & Ziegler AR-2000 Radio-TLC Imaging Scanner. The radiochemical purity was analyzed by high performance chromatography (HPLC) and was typically >90%. Briefly, the product was analyzed using a Phenomenex Luna 3.0 m C18(2), 100A, 150 mm×4.6 mm column. […]
The labeling efficiency was analyzed by instant thin layer chromatography (iTLC) and was typically >95%. […] The iTLC strips were analyzed using an Eckert & Ziegler AR-2000 Radio-TLC Imaging Scanner. The radiochemical purity was analyzed by high performance chromatography (HPLC) and was typically >95%. Briefly, the product was analyzed using a Phenomenex Luna 3.0 m C18(2), 100Å, 150 mm×4.6 mm column. […]
The labeling efficiency was analyzed by instant thin layer chromatography (iTLC) and was typically >95%. […]

## C[C@@H](NC(=O)c1ccc(CNC(=O)CN2CCN3CCN4CCN(CC2)CC(=O)[O][Ga]([O]C(=O)C3)[O]C(=O)C4)cc1)C(=O)N1CCC[C@H]1B(O)O [[^68Ga]-6555]
[1]
  time of accumulation in the tumor (time-vs-activity curve): < 5 min
  time of reaching a plateau in the tumor: 60 min
[2]
  radiochemical purity remained: > 95%
